# Measured values: US20250195521A1 (Revolution Medicines, Inc., priority 2020, published 2025)
# System: NCI-H358 (K-Ras G12C)
# Test: CellTiter-Glo cell viability assay, NCI-H358
# Format: cell-based, human
# Conditions: 5-day treatment; read-out: H358 Cell Viability assay data (K-Ras G12C, IC50)
# Method: Determination of Cell Viability in RAS Mutant Cancer Cell Lines Protocol: CellTiter-Glo® Cell Viability Assay
# Note—The following protocol describes a procedure for monitoring cell viability of K-Ras mutant cancer cell lines in response to a compound of the invention. Other RAS isoforms may be employed, though the number of cells to be seeded will vary based on cell line used.
# Test compounds (132.5 nL) were directly dispensed into the assay plates containing cells. […] On day 5, assay plates and their contents were equilibrated to room temperature for approximately 30 minutes. […] Luminescence was measured using the PerkinElmer Enspire. Data were normalized by the following: (Sample signal/Avg. DMSO)*100. The data were fit using a four-parameter logistic fit.
row,Compound,IC50
1,C=CC(=O)Nc1ccc(C(=O)N(C)[C@H](C(=O)N[C@H]2Cc3cc(O)cc(c3)-c3ccc4c(c3)c(c(-c3cccnc3[C@H](C)OC)n4CC)CC(C)(C)COC(=O)[C@@H]3CCCN(N3)C2=O)C(C)C)cn1 [Compound A336],< 0.01 µM

# Same assay, conditions: Homo sapiens, NCI-H358, 120 h, 5-day treatment; read-out: H358 Cell Viability assay data (K-Ras G12C, IC50)
row,Compound,IC50
1,C=CC(=O)N1CC[C@@H](C(=O)N(C)[C@H](C(=O)N[C@H]2Cc3cc(O)cc(c3)-c3ccc4c(c3)c(c(-c3cncnc3)n4CC)CC(C)(C)COC(=O)[C@@H]3CCCN(N3)C2=O)C(C)C)O1 [Compound A179],> 10 µM
2,C=CC(=O)N1CC[C@H](C(=O)N(C)[C@H](C(=O)N[C@H]2Cc3cc(O)cc(c3)-c3ccc4c(c3)c(c(-c3cncnc3)n4CC)CC(C)(C)COC(=O)[C@@H]3CCCN(N3)C2=O)C(C)C)O1 [Compound A180],> 10 µM
3,CCn1c(-c2cccnc2[C@H](C)OC)c2c3cc(ccc31)-c1cc(O)cc(c1)C[C@H](NC(=O)[C@H](C(C)C)N(C)C(=O)[C@H]1CCN(C(=O)C#CCN3CCOCC3)C1)C(=O)N1CCC[C@H](N1)C(=O)OCC(C)(C)C2 [Compound A182],< 0.01 µM
4,COCc1ncccc1-c1nc2ccc3cc2n1CC(C)(C)COC(=O)[C@@H]1CCCN(N1)C(=O)[C@@H](NC(=O)[C@H](C(C)C)N(C)C(=O)[C@H]1CCN(C(=O)C#CCN2CCOCC2)C1)Cc1cc(O)cc-3c1 [Compound A188],> 10 µM
5,CCn1c(-c2cccnc2COC)c2c3cc(ccc31)-c1cc(O)cc(c1)C[C@H](NC(=O)[C@H](C(C)C)N(C)C(=O)[C@H]1CCN(C(=O)C#CCN3CCN(C)CC3)C1)C(=O)N1CCC[C@H](N1)C(=O)OCC(C)(C)C2 [Compound A189],> 10 µM
6,CCn1c(-c2cncnc2)c2c3cc(ccc31)-c1cccc(c1)[C@@H](OC)[C@H](NC(=O)[C@H](C(C)C)N(C)C(=O)[C@H]1CCN(C(=O)C#CCN3CCOCC3)C1)C(=O)N1CCC[C@H](N1)C(=O)OCC(C)(C)C2 [Compound A208],> 10 µM
7,CCn1c(-c2ccccc2CN(C)C)c2c3cc(ccc31)-c1cc(O)cc(c1)C[C@H](NC(=O)[C@H](C(C)C)N(C)Cc1ccc(NC(=O)/C=C/CN(C)C)cn1)C(=O)N1CCC[C@H](N1)C(=O)OCC(C)(C)C2 [Compound A213],> 10 µM
8,CCn1c(-c2ccccc2CCOC)c2c3cc(ccc31)-c1cc(O)cc(c1)C[C@H](NC(=O)[C@H](C(C)C)N(C)C(=O)c1ccc(NC(=O)/C=C/CN(C)C)nc1)C(=O)N1CCC[C@H](N1)C(=O)OCC(C)(C)C2 [Compound A218],> 10 µM
9,CCn1c(-c2ccccc2CCOC)c2c3cc(ccc31)-c1cc(O)cc(c1)C[C@H](NC(=O)[C@H](C(C)C)N(C)C(=O)c1ccc(NC(=O)/C=C/CN(C)C)cn1)C(=O)N1CCC[C@H](N1)C(=O)OCC(C)(C)C2 [Compound A224],> 10 µM
10,C=CC(=O)N1CC[C@H](C(=O)Nc2ccccc2C(=O)N[C@H]2Cc3cc(O)cc(c3)-c3ccc4c(c3)c(c(-c3cnccc3COC)n4CC)CC(C)(C)COC(=O)[C@@H]3CCCN(N3)C2=O)C1 [Compound A229],> 10 µM
11,C=CC(=O)N1CC[C@H](C(=O)N(C)[C@H](C(=O)N(C)[C@H]2Cc3cc(O)cc(c3)-c3ccc4c(c3)c(c(-c3cccnc3COC)n4CC)CC(C)(C)COC(=O)[C@@H]3CCCN(N3)C2=O)C(C)C)C1 [Compound A230],> 10 µM
12,C=CC(=O)N1CC[C@H](C(=O)N(C)[C@H](C(=O)N[C@H]2Cc3cc(OC4O[C@H](CO)[C@@H](O)[C@H](O)[C@H]4O)cc(c3)-c3ccc4c(c3)c(c(-c3cccnc3COC)n4CC)CC(C)(C)COC(=O)[C@@H]3CCCN(N3)C2=O)C(C)C)C1 (some centres unmarked) [Compound A234],> 10 µM
13,C=CC(=O)N1CC[C@H](C(=O)N(C)[C@H](C(=O)N[C@H]2CN(C)C(=O)Cc3ccc4c(c3)c(c(-c3cccnc3COC)n4CC)CC(C)(C)COC(=O)[C@@H]3CCCN(N3)C2=O)C(C)C)C1 [Compound A239],> 10 µM
14,C=CC(=O)N1CC[C@H](C(=O)N(C)[C@H](C(=O)N[C@H]2C[C@H]3CN(CCO3)c3ccc4c(c3)c(c(-c3cccnc3COC)n4CC)CC(C)(C)COC(=O)[C@@H]3CCCN(N3)C2=O)C(C)C)C1 [Compound A240],> 10 µM
15,C=CC(=O)N1CC[C@H](C(=O)N(C)[C@H](C(=O)N[C@H]2Cc3cc(O)cc(c3)-c3ccc4nc(-c5cccnc5[C@H](C)OC)n(c4c3)CC(C)(C)COC(=O)[C@@H]3CCCN(N3)C2=O)C(C)C)C1 [Compound A242],> 10 µM
16,C=CC(=O)N1CC[C@H](C(=O)N(C)[C@H](C(=O)N[C@H]2Cc3cc(O)cc(c3)-c3ccc4nc(-c5cccnc5COC)c(n4c3)CC(C)(C)COC(=O)[C@@H]3CCCN(N3)C2=O)C(C)C)C1 [Compound A243],> 10 µM

row,Compound,IC50
1,CCn1c(-c2cccnc2[C@H](C)OC)c2c3cc(ccc31)-c1cc(O)cc(c1)C[C@H](NC(=O)[C@H](C(C)C)N(C)C(=O)[C@H]1CCN(C(=O)C#C[C@@H]3CCCN3C)C1)C(=O)N1CCC[C@H](N1)C(=O)OCC(C)(C)C2 [Compound A247],< 0.01 µM
2,C=CC(=O)N1CC[C@H](C(=O)N(C)[C@H](C(=O)N[C@H]2CC3=NN=C(S3)c3ccc4c(c3)c(c(-c3cccnc3[C@H](C)OC)n4CC)CC(C)(C)COC(=O)[C@@H]3CCCN(N3)C2=O)C(C)C)C1 [Compound A248],> 10 µM
3,C=CC(=O)Nc1ccc(C(=O)N(C)[C@H](C(=O)N[C@H]2Cc3cc(O)cc(c3)-c3ccc4c(c3)c(c(-c3cccnc3[C@H](C)OC)n4CC)CC(C)(C)COC(=O)[C@@H]3CCCN(N3)C2=O)C(C)C)cn1 [Compound A250],< 0.01 µM
4,CCn1c(-c2cccnc2[C@H](C)OC)c2c3cc(ccc31)-c1cc(O)cc(c1)C[C@H](NC(=O)C1CCCC1C(F)F)C(=O)N1CCC[C@H](N1)C(=O)OCC(C)(C)C2 (some centres unmarked) [Compound A254],0.1 to 1 µM
5,C=CC(=O)N1CC[C@H](C(=O)N(C)[C@H](C(=O)N[C@@H]2C(=O)N3CCC[C@H](N3)C(=O)OCC(C)(C)Cc3c(-c4cncnc4)n(CC)c4ccc(cc34)-c3cccc(c3)[C@H]2O)C(C)C)C1 [Compound A272],> 10 µM
6,C=CC(=O)N1CC[C@H](C(=O)N(C)[C@H](C(=O)N[C@@H]2C(=O)N3CCC[C@H](N3)C(=O)OCC(C)(C)Cc3c(-c4cncnc4)n(CC)c4ccc(cc34)-c3cccc(c3)[C@H]2OC)C(C)C)C1 [Compound A273],> 10 µM
7,C=CC(=O)N1CC[C@H](C(=O)N(C)[C@H](C(=O)N[C@H]2Cc3ncc(n3C)-c3ccc4c(c3)c(c(-c3cccnc3[C@H](C)OC)n4CC)CC(C)(C)COC(=O)[C@@H]3CCCN(N3)C2=O)C(C)C)C1 [Compound A276],> 10 µM
8,C=CC(=O)N1CC[C@H](C(=O)N(C)[C@H](C(=O)N[C@H]2Cc3cc(O)cc(c3)-c3ccc4c(c3)c(c(-c3cccnc3[C@@H]3CCCO3)n4CC)CC(C)(C)COC(=O)[C@@H]3CCCN(N3)C2=O)C(C)C)C1 [Compound A281],< 0.01 µM
9,C=CC(=O)N1CC[C@H](C(=O)N(C)[C@H](C(=O)N[C@H]2Cc3nc(ns3)-c3ccc4c(c3)c(c(-c3cncnc3)n4CC)CC(C)(C)COC(=O)[C@@H]3CCCN(N3)C2=O)C(C)C)C1 [Compound A285],> 10 µM
10,C=CC(=O)N1CC[C@H](C(=O)N(C)[C@H](C(=O)N[C@H]2Cc3nc(cs3)-c3ccc4c(c3)c(c(-c3cccnc3[C@H](C)OC)n4CC)CC(C)(C)CN(C)C[C@@H]3CCCN(N3)C2=O)C(C)C)C1 [Compound A287],> 10 µM
11,C=CC(=O)N1CC[C@H](C(=O)N(C)[C@H](C(=O)N[C@H]2Cc3nc(cs3)-c3ccc4c(c3)c(c(-c3cccnc3[C@H](C)OC)n4CC)CC(C)(C)CCC[C@@H]3CCCN(N3)C2=O)C(C)C)C1 [Compound A288],> 10 µM
12,CO[C@@H](C)c1ncccc1-c1nc2ccc3cn2c1CC(C)(C)COC(=O)[C@@H]1CCCN(N1)C(=O)[C@@H](NC(=O)[C@H](C(C)C)N(C)C(=O)[C@H]1CCN(C(=O)C#CC(C)(C)N(C)C)C1)Cc1cccc-3c1 [Compound A311],> 10 µM
13,CCn1c(-c2cccnc2[C@H](C)OC)c2c3cc(ccc31)-c1csc(n1)C[C@H](NC(=O)C1(F)COC1)C(=O)N1CCC[C@H](N1)C(=O)OCC(C)(C)C2 [Compound A320],0.01 to 0.1 µM
14,"C=CC(=O)N1CC[C@H](C(=O)N(C)[C@H](C(=O)N[C@H]2Cc3nc(cs3)-c3ccc4c(n3)c(c(-c3cccnc3[C@H](C)OC)n4CC)CC(C)(C)COC(=O)[C@@H]3CCCN(N3)C2=O)C(C)C)C1 [Compound A347, (2S)—N-[(7S,13S)-21-ethyl-20-{2-[(1S)-1-methoxyethyl]pyridin-3-yl}-17,17-dimethyl-8,14-dioxo-15-oxa-4-thia-9,21,25,27,28-pentaazapentacyclo[17.5.2.1^{2,5}0.1^{9,13}0.0^{22,26}]octacosa-1 (25),2,5 (28), 19,22 (26),23-hexaen-7-yl]-3-methyl-2-{N-methyl-1-[(3S)-1-(prop-2-enoyl)pyrrolidin-3-yl]formamido}butanamide]",0.1 to 1 µM
15,CCn1c(-c2cccnc2[C@H](C)OC)c2c3cc(ccc31)-c1csc(n1)C[C@H](NC(=O)[C@H](C(C)C)N(C)C(=O)N1CC(N(C)C(=O)C#CC(C)(C)N3CCC3)C1)C(=O)N1CCC[C@H](N1)C(=O)OCC(C)(C)C2 [Compound A379],< 0.01 µM
16,C=CC(=O)N1CC[C@H](C(=O)N(C)[C@H](C(=O)N[C@H]2C[C@H]3CN(CCCO3)c3ccc4c(c3)c(c(-c3cccnc3[C@H](C)OC)n4CC)CC(C)(C)COC(=O)[C@@H]3CCCN(N3)C2=O)C(C)C)C1 [Compound A405],> 10 µM

# Same assay, conditions: Homo sapiens, NCI-H358, 120 h, read-out: H358 Cell Viability assay data (K-Ras G12C, IC50, uM), 5-day treatment
row,Compound,IC50
1,CCn1c(-c2cccnc2[C@H](C)OC)c2c3cc(ccc31)-c1csc(n1)C[C@H](NC(=O)[C@H](C(C)C)N(C)C(=O)N1CC3CC(C1)N3C)C(=O)N1CCC[C@H](N1)C(=O)OCC(C)(C)C2 [Compound A284],0.1 to 1 µM

# Same assay, conditions: read-out: H358 Cell Viability assay data (K-Ras G12C, IC50); 5-day treatment
row,Compound,IC50
1,CC#CC(=O)N1CC[C@H](C(=O)N(C)[C@@H](C(=O)N[C@H]2Cc3cc(O)cc(c3)-c3ccc4c(c3)c(c(-c3cccnc3[C@H](C)OC)n4CC)CC(C)(C)COC(=O)[C@@H]3CCCN(N3)C2=O)C(C)C)C1 [Compound A198],> 10 µM
